Assays:
[1] = target: T1, hRIPK1 (aa 1-375) fusion protein (Homo sapiens, UniProt Q13546); test: ADP-Glo kinase assay: catalytic activity of RIPK1 (autophosphorylation, conversion of ATP to ADP); assay type: biochemical
T1 construct: hRIPK1 (aa 1-375) fusion protein
T1 sequence (Q13546 1-375): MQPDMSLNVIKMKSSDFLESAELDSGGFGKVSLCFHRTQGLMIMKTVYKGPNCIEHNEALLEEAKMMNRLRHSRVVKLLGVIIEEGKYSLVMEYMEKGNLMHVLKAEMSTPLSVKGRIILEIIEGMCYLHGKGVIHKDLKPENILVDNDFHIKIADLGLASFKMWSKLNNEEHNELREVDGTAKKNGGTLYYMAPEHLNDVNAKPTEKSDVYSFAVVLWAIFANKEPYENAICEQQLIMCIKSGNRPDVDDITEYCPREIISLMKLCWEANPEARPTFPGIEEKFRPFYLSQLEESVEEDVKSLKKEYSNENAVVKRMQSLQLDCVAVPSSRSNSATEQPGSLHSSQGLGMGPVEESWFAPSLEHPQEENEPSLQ
Method in brief: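 hRIPK1 (aa 1-375) fusion protein (3.6 μg/ml final) was preincubated 30 min at rt with compound (33300-1.69 nM, 1% DMSO), then 50 μM ATP was added for 240 min at rt. ADP from autophosphorylation was measured by ADP-Glo luminescence and curves fitted by nonlinear regression.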

U937 cells = test: Cellular assay in U937 cells: activity of RIPK1 inhibitors on TNFα/zVAD.fmk-induced cell death (necroptosis), CellTiter 96 AQueous (MTS) readout; assay type: cell-based; details: Homo sapiens, U-937
Method in brief: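 Necroptosis was measured by viable-cell MTS reduction (4 h, absorbance 490 nm) after overnight (18–24 h) 37° C culture. Cell suspensions of U937 cells carried TNFα (100 ng/ml) plus zVAD.fmk (50 μM) before compound was added. A 10-point curve (10 μM–0.26 nM or 1 μM–0.07 nM) was run in duplicate, normalised to the control lacking TNFα/zVAD.fmk.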

SMILES	IC50 [1]	IC50 (U937 cells)
Cc1nc2ccc(C[C@H]3CC[C@H](C(=O)N4OCC[C@H]4c4cc(C#N)ccc4F)CC3)cn2n1 [compound 289, trans-4-fluoro-3-[(3S)-2-[4-[(2-methyl-[1,2,4]triazolo[1,5-a]pyridin-6-yl)methyl]cyclohexanecarbonyl]isoxazolidin-3-yl]benzonitrile]	36 nM	733 nM
N#Cc1cc(F)cc([C@@H]2CCON2C(=O)[C@H]2CC[C@H](Cc3cncnc3)CC2)c1 [compound 247, trans-3-fluoro-5-[(3S)-2-[4-(pyrimidin-5-ylmethyl)cyclohexanecarbonyl]isoxazolidin-3-yl]benzonitrile]	22 nM	136 nM
Cc1cc(C)n(-c2cc(C[C@H]3CC[C@H](C(=O)N4OCC[C@H]4c4cc(F)cc(C#N)c4)CC3)ncn2)n1 [compound 124, trans-3-[(3S)-2-[4-[[6-(3,5-dimethylpyrazol-1-yl)pyrimidin-4-yl]methyl]cyclohexanecarbonyl]isoxazolidin-3-yl]-5-fluoro-benzonitrile]	26 nM	68 nM
COc1cncc([C@@H]2CCON2C(=O)[C@H]2CC[C@H](Cc3ccc(C)c(C(N)=O)c3)CC2)n1 [compound 166, trans-5-[[4-[(3S)-3-(6-methoxypyrazin-2-yl)isoxazolidine-2-carbonyl]cyclohexyl]methyl]-2-methyl-benzamide]	8 nM	50 nM
Cc1nn(C[C@H]2CC[C@H](C(=O)N3OCC[C@H]3c3cc(F)cc(C#N)c3)CC2)c2cc(C(N)=O)cc(F)c12 [compound 102, trans-1-((4-((S)-3-(3-cyano-5-fluorophenyl)isoxazolidine-2-carbonyl)cyclohexyl)methyl)-4-fluoro-3-methyl-1H-indazole-6-carboxamide]	23 nM	37 nM
O=C1NCc2ccc(C[C@H]3CC[C@H](C(=O)N4OCC[C@H]4c4cncc(F)c4)CC3)cc21 [compound 155, trans-6-[[4-[(3S)-3-(5-fluoro-3-pyridyl)isoxazolidine-2-carbonyl]cyclohexyl]methyl]isoindolin-1-one]	15 nM	19 nM
NC(=O)c1cc2c(ccn2C[C@H]2CC[C@H](C(=O)N3OCC[C@H]3c3cc(F)cc(F)c3)CC2)cc1F [compound 77, trans-1-((4-((S)-3-(3,5-difluorophenyl)isoxazolidine-2-carbonyl)cyclohexyl)methyl)-5-fluoro-1H-indole-6-carboxamide]	14 nM	3 nM
Cc1nc2cc(C[C@H]3CC[C@H](C(=O)N4OCC[C@H]4c4csc(C)n4)CC3)ccn2n1 [compound 372, trans-[(S)-3-(2-Methyl-thiazol-4-yl)-isoxazolidin-2-yl]-[4-(2-methyl-[1,2,4]triazolo[1,5-a]pyridin-7-ylmethyl)-cyclohexyl]-methanone]	53 nM	103 nM
N#Cc1cc(C[C@H]2CC[C@H](C(=O)N3OCC[C@H]3c3cnccn3)CC2)ccc1F [compound 243, trans-2-fluoro-5-[[4-[(3S)-3-pyrazin-2-ylisoxazolidine-2-carbonyl]cyclohexyl]methyl]benzonitrile]	13 nM	3 nM
NC(=O)c1cc(C[C@H]2CC[C@H](C(=O)N3OCC[C@H]3c3ccc(F)cc3)CC2)ccc1F [compound 191, trans-2-fluoro-5-[[4-[(3S)-3-(4-fluorophenyl)isoxazolidine-2-carbonyl]cyclohexyl]methyl]benzamide]	10 nM	9 nM
O=C([C@H]1CC[C@H](Cc2ccc(CO)c(F)c2)CC1)N1OCC[C@H]1c1cc(F)cc(F)c1 [compound 265, trans-[(3S)-3-(3,5-difluorophenyl)isoxazolidin-2-yl]-[4-[[3-fluoro-4-(hydroxymethyl)phenyl]methyl]cyclohexyl]methanone]	8 nM	1 nM
Cc1ccc(C[C@H]2CC[C@H](C(=O)N3OCC[C@H]3c3cc(F)cc(C#N)c3)CC2)cc1C(N)=O [compound 133, trans-5-[[4-[(3S)-3-(3-cyano-5-fluoro-phenyl)isoxazolidine-2-carbonyl]cyclohexyl]methyl]-2-methyl-benzamide]	8 nM	8 nM
CNC(=O)c1ccc(F)c(C[C@H]2CC[C@H](C(=O)N3OCC[C@H]3c3cnccn3)CC2)c1 [compound 175, trans-4-fluoro-N-methyl-3-[[4-[(3S)-3-pyrazin-2-ylisoxazolidine-2-carbonyl]cyclohexyl]methyl]benzamide]	14 nM	7 nM
Cc1cn2ncc(C[C@H]3CC[C@H](C(=O)N4OCC[C@H]4c4cccc(C#N)c4)CC3)cc2n1 [compound 322, [2-cyano-4-[(3S)-2-[4-[(2-methylimidazo[1,2-b]pyridazin-7-yl)methyl]cyclohexanecarbonyl]isoxazolidin-3-yl]phenyl]]	37 nM	27 nM
CNC(=O)c1ccc(F)c(C[C@H]2CC[C@H](C(=O)N3OCC[C@H]3c3cc(F)cc(F)c3)CC2)c1 [compound 174, trans-3-[[4-[(3S)-3-(3,5-difluorophenyl)isoxazolidine-2-carbonyl]cyclohexyl]methyl]-4-fluoro-N-methyl-benzamide]	19 nM	4 nM
Cc1nc([C@@H]2CCON2C(=O)[C@H]2CC[C@H](Cc3ccc4nnc(C)n4c3C)CC2)cs1 [compound 375, [4-(3,5-Dimethyl-[1,2,4]triazolo[4,3-a]pyridin-6-ylmethyl)-cyclohexyl]-[(S)-3-(2-methyl-thiazol-4-yl)-isoxazolidin-2-yl]-methanone]	63 nM	10 nM
Cc1ccc([C@@H]2CCON2C(=O)[C@H]2CC[C@H](Cc3cc(C)c4nnc(C)n4c3)CC2)cn1 [compound 365, trans-[4-(3,8-Dimethyl-[1,2,4]triazolo[4,3-a]pyridin-6-ylmethyl)-cyclohexyl]-[(S)-3-(6-methyl-pyridin-3-yl)-isoxazolidin-2-yl]-methanone]	97 nM	71 nM

More lines, in order of falling IC50 [1], values ahead:

IC50 [1]	SMILES	IC50 (U937 cells)
148 nM	COc1cncc([C@@H]2CCON2C(=O)[C@H]2CC[C@H](Cn3ccc4ccc(C#N)cc43)CC2)n1 [compound 241, trans-1-[[4-[(3S)-3-(6-methoxypyrazin-2-yl)isoxazolidine-2-carbonyl]cyclohexyl]methyl]indole-6-carbonitrile]	28 nM
97 nM	Cc1ccc([C@@H]2CCON2C(=O)C23CCC(Cc4ccc(C)c(C(N)=O)c4)(CC2)C3)cn1 [compound 271, 2-methyl-5-[[4-[(3S)-3-(6-methyl-3-pyridyl)isoxazolidine-2-carbonyl]norbornan-1-yl]methyl]benzamide]	605 nM
46 nM	Cn1cc(C[C@H]2CC[C@H](C(=O)N3OCC[C@H]3c3cnccn3)CC2)cn1 [compound 151, trans-[4-[(1-methylpyrazol-4-yl)methyl]cyclohexyl]-[(3S)-3-pyrazin-2-ylisoxazolidin-2-yl]methanone]	214 nM
32 nM	Cc1cc([C@@H]2CCON2C(=O)[C@H]2CC[C@H](Cn3cnc4c(F)cc(C#N)cc43)CC2)co1 [compound 38, trans-4-fluoro-1-((4-((S)-3-(5-methylfuran-3-yl)isoxazolidine-2-carbonyl)cyclohexyl)methyl)-1H-benzo[d]imidazole-6-carbonitrile]	30 nM
25 nM	Cc1nn(C[C@H]2CC[C@H](C(=O)N3OCC[C@H]3c3cc(F)cc(F)c3)CC2)c2cc(F)c(C#N)cc12 [compound 68, trans-1-((4-((S)-3-(3,5-difluorophenyl)isoxazolidine-2-carbonyl)cyclohexyl)methyl)-6-fluoro-3-methyl-1H-indazole-5-carbonitrile]	2 nM
19 nM	N#Cc1cc(F)cc([C@@H]2CCON2C(=O)[C@H]2CC[C@H](Cn3ncc4c(F)cc(C#N)cc43)CC2)c1 [compound 32, trans-1-((4-((S)-3-(3-cyano-5-fluorophenyl)isoxazolidine-2-carbonyl)cyclohexyl)methyl)-4-fluoro-1H-indazole-6-carbonitrile]	3 nM
17 nM	Cc1nn(C[C@H]2CC[C@H](C(=O)N3OCC[C@H]3c3cc(F)cc(C#N)c3)CC2)c2cc(C#N)cc(F)c12 [compound 100, trans-1-((4-((S)-3-(3-cyano-5-fluorophenyl)isoxazolidine-2-carbonyl)cyclohexyl)methyl)-4-fluoro-3-methyl-1H-indazole-6-carbonitrile]	4 nM
13 nM	N#Cc1cncc(C[C@H]2CC[C@H](C(=O)N3OCC[C@H]3c3cc(F)cc(C#N)c3)CC2)c1 [compound 141, trans-5-[[4-[(3S)-3-(3-cyano-5-fluoro-phenyl)isoxazolidine-2-carbonyl]cyclohexyl]methyl]pyridine-3-carbonitrile]	17 nM
10 nM	NC(=O)c1cc(C[C@H]2CC[C@H](C(=O)N3OCC[C@H]3c3cnccn3)CC2)ccc1F [compound 193, trans-2-fluoro-5-[[4-[(3S)-3-pyrazin-2-ylisoxazolidine-2-carbonyl]cyclohexyl]methyl]benzamide]	14 nM
